Measured values reported in patent US12661345B2, “Compositions for the treatment of hypertension” (The George Institute for Global Health, priority 2017, dated 2026).

Tests used:
LDL = LDL laboratory test in the 3×3 factorial trial; format: in vivo, human; conditions: Week 12 v/s Baseline
Description: (§1) There was a 4 week screening period and another 4-week post study drug observational period.
(§2) Group 2 received the low-dose BP lowering combination and simvastatin (i.e., telmisartan 20 mg+amlodipine 2.5 mg+simvastatin). Group 3 received the low-dose BP lowering combination and placebo (i.e., telmisartan 20 mg+amlodipine 2.5 mg+placebo). […] Group 9 received double placebo.
Change in DBP and SBP • 2. Change in LDL Secondary Outcomes: • 1. Tolerability: • a. […] Difference between groups in participant withdrawals from treatment • 2. Safety: Percentage with any severe adverse event (SAE) • 3. Medication adherence: self-reported measures, pill counts BP Measurement:
Potassium (K+), sodium (Na+), serum creatinine and LDL were measured at screening and at the 12-week end of treatment follow-up visit.
(§3) All analyses of study outcomes were conducted according to the principle of intention-to-treat. The analyses of continuous outcomes such SBP and LDL-cholesterol at 12 weeks was performed using ANCOVA including the treatment arm and baseline values as a covariate. Additional analyses included interim measurements in a longitudinal model including treatment arm, visit, and treatment by visit interaction as well as the baseline measurement. Within-patient correlations were modelled using generalized estimating equations. A similar approach was applied to binary endpoints with log-binomial regression used in place of linear regression. There were also pre-defined subgroup analyses, baseline BP, baseline LDL, gender and age.

[1] = system: participants with migraine; assay: Subject status / participant withdrawals by visit in the 3×3 factorial trial
[2] = system: participants with migraine; assay: Office blood pressure in 12-week double blind randomized 3×3 factorial trial; format: in vivo, human
Description: as §1
There was a 4-week screening period and another 4-week post study drug observational period.
as §2
Office BP was measured following the recommendations of the Australian National Heart Foundation. Participants were rested in the seated position for 5 minutes, an appropriate cuff size was selected and 3 measurements of BP were recorded using an Omron HEM907 monitor or equivalent validated automated digital BP monitor. Principles of automated office BP measurements were applied whereby the patient was left alone during BP recording.
as §3

[3] = Randomization (baseline, before treatment)
[4] = Week 16 (after 4-week post study drug period)

Compound: CCC(C)(C)C(=O)O[C@H]1C[C@@H](C)C=C2C=C[C@H](C)[C@H](CC[C@@H]3C[C@@H](O)CC(=O)O3)[C@H]21 [Simvastatin, simvastatin]
- Change in LDL from baseline to 12 weeks Mean (SD) (LDL): 9 −1.0 (0.38) mmol/l
- Change in LDL from baseline to 12 weeks Q1 (LDL): -1.2 mmol/L
- Change in LDL from baseline to 12 weeks Q2 (LDL): -1.0 mmol/L
- Change in LDL from baseline to 12 weeks Q3 (LDL): -0.8 mmol/L
- Change in LDL from baseline to 12 weeks max (LDL): -1 mmol/L
- Change in LDL from baseline to 12 weeks min (LDL): -2 mmol/L
- Discontinuing the study (n/N) ([1]; Week 4): 0/9
- Discontinuing the study (percent) ([1]; Week 4): (0.0%)
- Discontinuing: Deceased (n/N) ([1]; Week 4): 0/0
- Discontinuing: Deceased (percent) ([1]; Week 4): (0.0%)
- Discontinuing the study (n/N) ([1]; Week 8): 0/9
- Discontinuing the study (percent) ([1]; Week 8): (0.0%)
- Discontinuing: Deceased (n/N) ([1]; Week 8): 0/0
- Discontinuing: Deceased (percent) ([1]; Week 8): (0.0%)
- Discontinuing the study (n/N) ([1]; Week 12): 0/9
- Discontinuing the study (percent) ([1]; Week 12): (0.0%)
- Discontinuing: Deceased (n/N) ([1]; Week 12): 0/0
- Discontinuing: Deceased (percent) ([1]; Week 12): (0.0%)
- Deceased (n/N) ([1]; Week 16): 0/9
- Deceased (percent) ([1]; Week 16): (0.0%)
- Diastolic Blood Pressure Mean (SD) [2, 3]: 9 82.7 (8.43) mmHg
- Diastolic Blood Pressure Q1 [2, 3]: 76.0 mmHg
- Diastolic Blood Pressure Q2 [2, 3]: 81.0 mmHg
- Diastolic Blood Pressure Q3 [2, 3]: 89.0 mmHg
- Diastolic Blood Pressure max [2, 3]: 96 mmHg
- Diastolic Blood Pressure min [2, 3]: 72 mmHg
- Systolic Blood Pressure Mean (SD) [2, 3]: 9 124.2 (13.17) mmHg
- Systolic Blood Pressure Q1 [2, 3]: 114.7 mmHg
- Systolic Blood Pressure Q2 [2, 3]: 123.0 mmHg
- Systolic Blood Pressure Q3 [2, 3]: 132.7 mmHg
- Systolic Blood Pressure max [2, 3]: 147 mmHg
- Systolic Blood Pressure min [2, 3]: 107 mmHg
- Diastolic Blood Pressure Mean (SD) ([2]; Week 4): 9 77.5 (6.98) mmHg
- Diastolic Blood Pressure Q1 ([2]; Week 4): 74.0 mmHg
- Diastolic Blood Pressure Q2 ([2]; Week 4): 77.7 mmHg
- Diastolic Blood Pressure Q3 ([2]; Week 4): 81.3 mmHg
- Diastolic Blood Pressure max ([2]; Week 4): 90 mmHg
- Diastolic Blood Pressure min ([2]; Week 4): 68 mmHg
- Systolic Blood Pressure Mean (SD) ([2]; Week 4): 9 122.2 (14.06) mmHg
- Systolic Blood Pressure Q1 ([2]; Week 4): 113.7 mmHg
- Systolic Blood Pressure Q2 ([2]; Week 4): 119.3 mmHg
- Systolic Blood Pressure Q3 ([2]; Week 4): 126.7 mmHg
- Systolic Blood Pressure max ([2]; Week 4): 146 mmHg
- Systolic Blood Pressure min ([2]; Week 4): 102 mmHg
- Diastolic Blood Pressure Mean (SD) ([2]; Week 8): 9 77.1 (6.07) mmHg
- Diastolic Blood Pressure Q1 ([2]; Week 8): 72.3 mmHg
- Diastolic Blood Pressure Q2 ([2]; Week 8): 78.7 mmHg
- Diastolic Blood Pressure Q3 ([2]; Week 8): 81.7 mmHg
- Diastolic Blood Pressure max ([2]; Week 8): 84 mmHg
- Diastolic Blood Pressure min ([2]; Week 8): 68 mmHg
- Systolic Blood Pressure Mean (SD) ([2]; Week 8): 9 117.0 (11.50) mmHg
- Systolic Blood Pressure Q1 ([2]; Week 8): 111.0 mmHg
- Systolic Blood Pressure Q2 ([2]; Week 8): 115.3 mmHg
- Systolic Blood Pressure Q3 ([2]; Week 8): 124.3 mmHg
- Systolic Blood Pressure max ([2]; Week 8): 135 mmHg
- Systolic Blood Pressure min ([2]; Week 8): 95 mmHg
- Diastolic Blood Pressure Mean (SD) ([2]; Week 12 (end of treatment)): 9 78.4 (10.70) mmHg
- Diastolic Blood Pressure Q1 ([2]; Week 12 (end of treatment)): 78.3 mmHg
- Diastolic Blood Pressure Q2 ([2]; Week 12 (end of treatment)): 81.3 mmHg
- Diastolic Blood Pressure Q3 ([2]; Week 12 (end of treatment)): 85.7 mmHg
- Diastolic Blood Pressure max ([2]; Week 12 (end of treatment)): 87 mmHg
- Diastolic Blood Pressure min ([2]; Week 12 (end of treatment)): 54 mmHg
- Systolic Blood Pressure Mean (SD) ([2]; Week 12 (end of treatment)): 9 117.8 (14.06) mmHg
- Systolic Blood Pressure Q1 ([2]; Week 12 (end of treatment)): 111.0 mmHg
- Systolic Blood Pressure Q2 ([2]; Week 12 (end of treatment)): 120.0 mmHg
- Systolic Blood Pressure Q3 ([2]; Week 12 (end of treatment)): 125.7 mmHg
- Systolic Blood Pressure max ([2]; Week 12 (end of treatment)): 135 mmHg
- Systolic Blood Pressure min ([2]; Week 12 (end of treatment)): 88 mmHg
- Change in DBP from baseline to 12 weeks Mean (SD) ([2]; Week 12 v/s Baseline): 9 −4.3 (8.95) mmHg
- Change in DBP from baseline to 12 weeks Q1 ([2]; Week 12 v/s Baseline): −8.7 mmHg
- Change in DBP from baseline to 12 weeks Q2 ([2]; Week 12 v/s Baseline): −3.7 mmHg
- Change in DBP from baseline to 12 weeks Q3 ([2]; Week 12 v/s Baseline): −0.7 mmHg
- Change in DBP from baseline to 12 weeks max ([2]; Week 12 v/s Baseline): 9 mmHg
- Change in DBP from baseline to 12 weeks min ([2]; Week 12 v/s Baseline): −22 mmHg
- Change in SBP from baseline to 12 weeks Mean (SD) ([2]; Week 12 v/s Baseline): 9 −6.4 (8.24) mmHg
- Change in SBP from baseline to 12 weeks Q1 ([2]; Week 12 v/s Baseline): −12.0 mmHg
- Change in SBP from baseline to 12 weeks Q2 ([2]; Week 12 v/s Baseline): −4.7 mmHg
- Change in SBP from baseline to 12 weeks Q3 ([2]; Week 12 v/s Baseline): 0.3 mmHg
- Change in SBP from baseline to 12 weeks max ([2]; Week 12 v/s Baseline): 5 mmHg
- Change in SBP from baseline to 12 weeks min ([2]; Week 12 v/s Baseline): −19 mmHg
- Diastolic Blood Pressure Mean (SD) [2, 4]: 9 80.5 (7.29) mmHg
- Diastolic Blood Pressure Q1 [2, 4]: 74.3 mmHg
- Diastolic Blood Pressure Q2 [2, 4]: 80.7 mmHg
- Diastolic Blood Pressure Q3 [2, 4]: 87.0 mmHg
- Diastolic Blood Pressure max [2, 4]: 90 mmHg
- Diastolic Blood Pressure min [2, 4]: 71 mmHg
- Systolic Blood Pressure Mean (SD) [2, 4]: 9 118.3 (10.11) mmHg
- Systolic Blood Pressure Q1 [2, 4]: 109.7 mmHg
- Systolic Blood Pressure Q2 [2, 4]: 116.7 mmHg
- Systolic Blood Pressure Q3 [2, 4]: 123.0 mmHg
- Systolic Blood Pressure max [2, 4]: 136 mmHg
- Systolic Blood Pressure min [2, 4]: 107 mmHg
